Experiment [1] concerns the target cardiac Herg channel (Homo sapiens, UniProt Q12809). As to the kind of experiment: Cardiac channel Herg current recordings.
Protocol: Cardiac channel Herg current recordings were performed as follows:
Cells were held at −90 mV and stepped for 1.5 s from −70 mV to +30 mV in 10 mV increments and repolarized at −60 mV.
In experiment [2] the target is T1, recombinant Kv7.2/3 channels (Homo sapiens, UniProt O43525+O43526).
T1 construct: expressed in transfected cells; host or cells: CHO cells
The experiment is described as follows: Whole-cell patch clamp of recombinant Kv7.2/3 currents in transfected CHO cells. It counts as cell-based. The conditions noted are these: for EC50: N = 5-10; for V50 (parameter of potency for Kv7.2/3 At 5 μM): compound at 5 μM, N = 5-12; for increase of the amplitude of recombinant Kv7.2/3 currents: 5 μM compound, at −40 mV, CHO cells. Here is the method:
Chinese hamster ovary CHO cells were grown in Dulbecco's modified Eagle's medium supplemented with 2 mM glutamine, 10% fetal calf serum, and antibiotics. In brief, 40,000 cells seeded on poly-D-lysine-coated glass coverslips (13 mm in diameter) in a 24-multiwell plate were transfected with pIRES-CD8 (0.3 μg) as a marker for transfection with 0.5 μg Kv7.2 and 0.5 μg Kv7.3. Transfection was performed using 3.6 μl of X-tremeGENE 9 (Roche) according to the manufacturer's protocol. For electrophysiology, transfected cells were visualized approximately 40 h after transfection, using the anti-CD8 antibody coated beads method.
(§1) For Kv7.2 potassium current recordings, the patch pipettes were pulled from borosilicate glass (Warner Instrument Corp) with a resistance of 3-7 MΩ, and were filled with (in mM): 130 KCl, 5 Mg ATP, 5 EGTA, 10 HEPES, pH 7.3 (adjusted with KOH), and sucrose was added to adjust osmolarity to 290 mOsmol. The external solution contained (in mM): 140 NaCl, 4 KCl, 1.2 MgCl2, 1.8 CaCl2, 11 glucose, 5.5 HEPES, pH 7.3 (adjusted with NaOH), and sucrose was added to adjust osmolarity to 310 mOsmol. […] For TRPV1 current recordings, the solutions were the same as those used for Kv7.2, except that the extracellular solution contained no CaCl2 to limit desensitization and included 1 mM EGTA and 1 mM MgCl2.
Chinese hamster ovary CHO cells were grown in Dulbecco's modified Eagle's medium supplemented with 2 mM glutamine, 10% fetal calf serum, and antibiotics. In brief, 40,000 cells seeded on poly-D-lysine-coated glass coverslips (13 mm in diameter) in a 24-multiwell plate were transfected with pIRES-CD8 (0.3 μg) as a marker for transfection with 0.5 μg of Kv7.2 and Kv7.3 cDNA plasmids. Transfection was performed using 3.6 μl of X-tremeGENE 9 (Roche) according to the manufacturer's protocol. For electrophysiology, transfected cells were visualized approximately 40 h after transfection, using the anti-CD8 antibody coated beads method. Recordings were performed using the whole cell configuration of the patch clamp technique. Signals were amplified using an Axopatch 200B patch-clamp amplifier (Axon Instruments), sampled at 5 kHz and filtered at 2.4 kHz via a four pole Bessel low pass filter. Data were acquired using pClamp 10.5 software in conjunction with a DigiData 1440A interface. The patch pipettes were pulled from borosilicate glass (Harvard Apparatus) with a resistance of 3-7 megaohms. The intracellular pipette solution contained 130 mM KCl, 5 mM K2-ATP, 5 mM EGTA (or 5 mM BAPTA when indicated), 10 mM HEPES, pH 7.3 (adjusted with KOH), CaCl2 (as needed for different values of free Ca2+ concentration according to MAXCHELATOR software, with sucrose added to adjust osmolarity to 290 mosmol. The external solution contained 140 mM NaCl, 4 mM KCl, 1.8 mM CaCl2, 1.2 mM MgCl2, 11 mM glucose, 5.5 mM HEPES, adjusted with NaOH to pH 7.3 (310 mOsM). Series resistances were compensated (75-90%) and periodically monitored. Data analysis was performed using the Clampfit program (pClamp 10.5; Axon Instruments), Microsoft Excel (Microsoft, Redmond, Wash.), and Prism 5.0 (GraphPad Software, Inc., San Diego, Calif.). Leak subtraction was performed off-line, using the Clampfit program of the pClamp 10.5 software.
The normalized conductance was plotted as a function of the test voltages, for cells in the absence and presence of the drug. Chord conductance (G) was calculated by using the following equation: G=I/(V−Vrev), where I corresponds to the current amplitude measured at the end of the pulse, and Vrev is the calculated reversal potential assumed to be −90 mV in CHO cells. G was estimated at various test voltages (V) and then normalized to a maximal conductance value, Gmax. Activation curves were fitted by one Boltzmann distribution: G/Gmax=1/{1+exp[(V50−V)/s]}, where V50 is the voltage at which the current is half-activated and s is the slope factor.
On the technique in general: In patch-clamp work, channel activity is measured electrically.

In experiment [3] the test system is nociceptive dorsal root (DRG) sensory neurons. The experiment is described as follows: Current-clamp recording of evoked spike discharge in DRG neurons. It counts as cell-based, rat. How it is done:
Inhibition of the evoked spike discharge of nociceptive dorsal root (DRG) sensory neurons was tested as follows:
(§2) For current-clamp recordings in DRG neurons, the patch pipettes were filled with (in mM): 135 KCl, 1 K2ATP, 1 MgATP, 2 EGTA, 1.1 CaCl2, 5 glucose (free [Ca^2+]i=87 nM), 10 HEPES, adjusted with KOH at pH 7.4 (315 mOsm). The external solution contained (in mM): 150 NaCl, 2.5 KCl, 2 CaCl2, 2 MgCl2, 15 glucose, 10 HEPES, adjusted with NaOH at pH 7.4 (325 mOsm). Drug exposure was evoked by rapid application using a fast perfusion system (AutoMate Scientific).

Experiment [4] deals with T2, recombinant TRPV1 channel (Homo sapiens, UniProt Q8NER1).
T2 construct: expressed in transfected cells; host or cells: CHO cells
T2 sequence (Q8NER1 whole entry): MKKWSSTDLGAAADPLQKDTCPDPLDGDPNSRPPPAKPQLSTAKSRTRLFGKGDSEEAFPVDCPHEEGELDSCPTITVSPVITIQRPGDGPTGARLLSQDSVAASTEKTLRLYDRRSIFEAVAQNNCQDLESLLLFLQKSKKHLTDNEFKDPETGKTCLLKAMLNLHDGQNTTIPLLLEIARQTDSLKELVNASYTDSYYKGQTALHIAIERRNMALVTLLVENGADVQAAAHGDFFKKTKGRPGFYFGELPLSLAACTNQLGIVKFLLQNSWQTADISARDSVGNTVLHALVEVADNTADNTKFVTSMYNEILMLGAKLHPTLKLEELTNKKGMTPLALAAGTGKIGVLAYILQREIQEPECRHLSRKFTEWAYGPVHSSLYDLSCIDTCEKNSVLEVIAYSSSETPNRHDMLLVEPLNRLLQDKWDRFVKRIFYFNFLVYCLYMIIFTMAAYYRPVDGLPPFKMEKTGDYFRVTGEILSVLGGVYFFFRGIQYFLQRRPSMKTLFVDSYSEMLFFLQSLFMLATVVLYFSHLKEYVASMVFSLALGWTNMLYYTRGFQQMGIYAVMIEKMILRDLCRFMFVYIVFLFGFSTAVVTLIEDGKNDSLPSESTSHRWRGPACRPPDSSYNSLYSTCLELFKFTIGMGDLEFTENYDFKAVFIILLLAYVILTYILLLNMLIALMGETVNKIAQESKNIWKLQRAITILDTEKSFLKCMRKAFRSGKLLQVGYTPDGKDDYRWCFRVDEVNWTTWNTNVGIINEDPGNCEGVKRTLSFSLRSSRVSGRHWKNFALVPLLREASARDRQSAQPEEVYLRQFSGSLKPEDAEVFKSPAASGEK
As to the kind of experiment: Whole-cell recording of capsaicin-activated recombinant TRPV1 currents in transfected CHO cells. It counts as cell-based. How it is done:
as §1
Inhibition of recombinant TRPV1 channel was tested as described in Example 2 hereinabove.
TRPV1 whole-cell currents were activated by exposing transfected CHO cells to 0.5 μM capsaicin at a holding potential of −60 mV.
FIG. 9 presents the effect of 5 μM NH66 on recombinant TRPV1 currents activated by 0.1 μM capsaicin (CAP). In FIG. 9 are shown the TRPV1 currents evoked by application of 0.1 μM capsaicin to transfected CHO cells. In the upper panel are shown the currents only evoked by application of 0.1 μM capsaicin; in the middle panel, are shown the currents first evoked by application of 0.1 μM capsaicin+5 μM NH66, then by 0.1 μM capsaicin only.

Experiment [5] relates to inward voltage-dependent Ca2+ and Na+ current in DRG neurons. The experiment is described as follows: Inward voltage-dependent Ca2+ and Na+ current in DRG neurons. It counts as cell-based. Conditions: 5 μM.
Experiment [6] deals with DRG neuron spike discharge triggered by activation of TRPV1 channels by capsaicin. The experiment is described as follows: Capsaicin-evoked DRG neuron spike discharge. It counts as cell-based. How it is done: as §2
The dual targeting and the synergistic effect of NH91 is further illustrated in FIGS. 17A-B and 18A-B, by its effect on the DRG neuron spike discharge triggered by the activation of TRPV1 channels by 1 μM capsaicin.

Where [7] appears, read: Rattus norvegicus, Neuron, N = 5-10, read-out: IC50 on inhibition of evoked spike discharge in DRG sensory neurons.
Setting [8] is: N = 5-10, Retigabine: No effect at 30, read-out: IC50 on TRPV1.
The mark [9] stands for this setting: DRG neuron, rat DRG neurons, read-out: IC50 of inhibition of evoked spike discharge of nociceptive DRG sensory neurons.

Like-named read-outs stand apart in the source and are kept apart here.

cardiac Herg channel, sequence (Q12809 whole entry): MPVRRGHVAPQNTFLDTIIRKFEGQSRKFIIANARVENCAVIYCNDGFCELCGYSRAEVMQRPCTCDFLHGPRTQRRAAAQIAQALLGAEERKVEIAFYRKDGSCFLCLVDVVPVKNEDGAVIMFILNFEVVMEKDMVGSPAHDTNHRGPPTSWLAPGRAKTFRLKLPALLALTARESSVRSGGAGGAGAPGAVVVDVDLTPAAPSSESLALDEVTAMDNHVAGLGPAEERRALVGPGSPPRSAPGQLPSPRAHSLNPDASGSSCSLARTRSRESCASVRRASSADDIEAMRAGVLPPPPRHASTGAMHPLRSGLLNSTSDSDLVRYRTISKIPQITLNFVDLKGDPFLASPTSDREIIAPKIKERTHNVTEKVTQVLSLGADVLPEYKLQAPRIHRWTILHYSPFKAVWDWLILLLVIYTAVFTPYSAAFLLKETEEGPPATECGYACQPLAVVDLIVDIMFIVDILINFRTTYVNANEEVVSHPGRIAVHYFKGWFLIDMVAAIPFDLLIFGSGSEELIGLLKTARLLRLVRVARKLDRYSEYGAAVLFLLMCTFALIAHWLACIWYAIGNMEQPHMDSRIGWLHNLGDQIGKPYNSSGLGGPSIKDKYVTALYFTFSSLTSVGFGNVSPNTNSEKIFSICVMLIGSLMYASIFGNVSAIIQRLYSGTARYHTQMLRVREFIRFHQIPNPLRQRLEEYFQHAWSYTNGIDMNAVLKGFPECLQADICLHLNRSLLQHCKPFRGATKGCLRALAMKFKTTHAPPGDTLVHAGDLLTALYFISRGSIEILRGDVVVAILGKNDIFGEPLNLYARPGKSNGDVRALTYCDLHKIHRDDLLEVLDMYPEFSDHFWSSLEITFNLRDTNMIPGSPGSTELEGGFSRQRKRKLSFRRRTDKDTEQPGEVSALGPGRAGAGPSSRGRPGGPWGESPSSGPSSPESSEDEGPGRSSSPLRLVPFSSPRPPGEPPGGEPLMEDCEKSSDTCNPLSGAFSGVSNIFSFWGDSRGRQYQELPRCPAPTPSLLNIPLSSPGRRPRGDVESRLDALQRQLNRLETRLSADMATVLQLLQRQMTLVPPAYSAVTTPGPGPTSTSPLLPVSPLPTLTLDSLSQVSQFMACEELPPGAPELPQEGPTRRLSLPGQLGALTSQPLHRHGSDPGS

Take `CC(C)(CO)CNC(=O)Cc1cc(Nc2c(Cl)cc(Cl)cc2Cl)ccc1F` [NH82]: the IC50 in experiment [1] is more than 100000 nM; in experiment [3] (setting [7]), 500 nM; in experiment [4] (setting [8]), 400 nM. In experiment [2], the EC50 was found to be 500 nM. Moreover, the “V50 (parameter of potency for Kv7.2/3 At 5 μM)” value in experiment [2] is given as −41.1 mV.

As for `CC(C)c1cc(Cl)cc(Cl)c1Nc1ccc(F)c(CC(=O)NCC(C)(C)O)c1` [NH91], the IC50 was more than 60000 nM in experiment [1], 1000 nM in experiment [3] (setting [7]) and 100 nM in experiment [4] (setting [8]). For the same compound, the “effect on inward voltage-dependent Ca2+ and Na+ current in DRG neurons” value in experiment [5] is listed as “did not affect”. Moreover, the “effect on amplitude at −40 mV and voltage-dependence of Kv7.2/3 channels (in words)” value (“effect on amplitude” for short) in experiment [2] is recorded as “potently increase the amplitude left-shift the voltage-dependence of activation”. In addition, in experiment [2], the EC50 was 2000 nM. Also, in experiment [2], the “V50 (parameter of potency for Kv7.2/3 At 5 μM)” value is −42.4 mV. Also, the “effect on DRG evoked spike discharge (in words)” value in experiment [3] is on record as “prominently inhibits”. In experiment [6] (Kv7.2/3 channel blocker XE991 10 μM present, n=11), the “inhibition of capsaicin-evoked DRG spike discharge in the presence of XE991” value was determined as 50%.

Take `O=C(Cc1cc(Nc2c(Cl)cc(Cl)cc2Cl)ccc1F)NC1CCC(O)C1` (stereo not shown) [NH110]: in experiment [2], the “effect on amplitude” value is given as “potently increase the amplitude left-shift the voltage-dependence of activation”; the EC50 stood at 7300 nM; the “V50 (parameter of potency for Kv7.2/3 At 5 μM)” value is on record as −38.5 mV. The “effect on DRG evoked spike discharge (in words)” value in experiment [3] is listed as “inhibits”. In addition, the half-inhibitory concentration (IC50) in experiment [3] (setting [7]) stood at 200 nM.

On to `O=C(Cc1cc([N+](=O)[O-])cc([N+](=O)[O-])c1Nc1c(Cl)cc([N+](=O)[O-])cc1Cl)NCCO` [NH29, reference compound], for which the concentration for half-maximal inhibition (IC50) in experiment [1] was 5000 nM; in experiment [3] (Rattus norvegicus, Neuron, read-out: IC50 on inhibition of evoked spike discharge in DRG sensory neurons), 18000 nM; in experiment [4] (setting [8]), 4200 nM. Further, the “V50 (parameter of potency for Kv7.2/3 At 5 μM)” value in experiment [2] is −27.4 mV.

On to `CC(C)(O)CNC(=O)Cc1cc(Nc2c(Cl)cc(Cl)cc2Cl)ccc1F` [NH66], for which the IC50 in experiment [1] is more than 60000 nM; in experiment [3] (setting [9]), 500 nM; in experiment [3] (setting [7]), 500 nM; in experiment [4] (currents activated by 0.1 μM capsaicin, read-out: IC50 of inhibition of recombinant TRPV1 currents), 300 nM. In experiment [2], the “increase of the amplitude of recombinant Kv7.2/3 currents” value is “about 3.5 fold”. Further, the EC50 in experiment [2] was 1000 nM. The “V50 (parameter of potency for Kv7.2/3 At 5 μM)” value in experiment [2] is −30.3 mV.

In the case of `CC(=O)Nc1nc2c(Oc3cc(-c4ccc(C(F)(F)F)cc4)ncn3)cccc2s1` [AMG 517, reference compound], the inhibition at 0.1 µM in experiment [6] (DRG neuron, read-out: inhibition of capsaicin-evoked DRG spikes) was found to be 42%.

Regarding `CC(C)(O)CCNC(=O)Cc1cc(Nc2c(Cl)cc(Cl)cc2C2CC2)ccc1F` [NH101], the IC50 in experiment [1] was more than 50000 nM; in experiment [3] (setting [7]), 200 nM; in experiment [4] (setting [8]), 100 nM. Besides, the “effect on amplitude” value in experiment [2] is listed as “potently increase the amplitude left-shift the voltage-dependence of activation”. Moreover, the EC50 in experiment [2] came out at 200 nM. Also, the “V50 (parameter of potency for Kv7.2/3 At 5 μM)” value in experiment [2] is listed as −67.4 mV.

Take `CC(C)(O)CCNC(=O)Cc1cc(Nc2c(Cl)cc(Cl)cc2Cl)ccc1F` [NH83]: in experiment [2], the EC50 is 600 nM and the “V50 (parameter of potency for Kv7.2/3 At 5 μM)” value is given as −37.3 mV. Moreover, the “effect on DRG evoked spike discharge (in words)” value in experiment [3] is “slightly improved activity”. Also, in experiment [3] (setting [7]), the IC50 came out at 200 nM. In addition, the IC50 in experiment [4] (setting [8]) is 800 nM.

For `O=C(Cc1ccc(Nc2c(Cl)cc(C(F)(F)F)cc2Cl)cc1)NCCO` [NH34, reference compound], the half-inhibitory concentration (IC50) in experiment [1] amounted to 35000 nM; in experiment [3] (setting [7]) it was 25000 nM; in experiment [4] (setting [8]) it was 55000 nM. In experiment [2], the 50% effective concentration (EC50) came to 17500 nM. Also, in experiment [2], the “V50 (parameter of potency for Kv7.2/3 At 5 μM)” value is −28.1 mV.

In the case of `O=C(Cc1cc(Nc2c(Cl)cc(Cl)cc2Cl)ccc1F)NCCO` [NH43, reference compound], the IC50 in experiment [1] is more than 60000 nM; in experiment [3] (setting [9]) it was 300 nM; in experiment [3] (setting [7]), 300 nM; in experiment [4] (setting [8]), 400 nM. In experiment [2], the “increase of the amplitude of recombinant Kv7.2/3 currents” value was “about 3.5 fold”. Moreover, the EC50 in experiment [2] turned out to be 600 nM. Besides, the “V50 (parameter of potency for Kv7.2/3 At 5 μM)” value in experiment [2] is on record as −42.0 mV.

Take `CCOC(=O)Nc1ccc(NCc2ccc(F)cc2)cc1N` [Retigabine, N-(2-amino-4-(4-fluorobenzylamino)-phenyl)carbamic acid ethyl ester, reference compound]: the IC50 in experiment [1] was more than 30000 nM; in experiment [3] (setting [7]), 5000 nM. Further, the “V50 (parameter of potency for Kv7.2/3 At 5 μM)” value in experiment [2] is −30.4 mV. Besides, the “IC50 on TRPV1” value in experiment [4] (N = 5-10, Retigabine: No effect at 30) is “No effect”.

The IC50 is the midpoint of a concentration-inhibition curve. For orientation: EC50 means the concentration needed to bring the measured effect to its halfway point. In general, inhibition refers to the change of the read-out against control, counted positive when it falls.

Values taken from patent US11427531B2, “Modulators of potassium ion and TRPV1 channels and uses thereof” (Ramot at Tel-Aviv University Ltd., priority 2017, dated 2022).
